# Data reported in patent US5972894A, “Peptides having potassium channel opener activity” (Cytran, Inc., priority 1997, dated 1999).
# Residues, ends and D or L forms follow the SMILES beside them.
# Experiments:
# [1] = system: rats; assay: CPK activity in blood serum 1 hour after coronary occlusion; format: in vivo; conditions: for CPK Activity in blood serum: 1 hour after coronary occlusion
# Procedure: White random-bred male rats weighing approximately 200 g were anesthetized using a light ether administration and then immobilized and artificially ventilated. […] Immediately after ligation, a test substance, positive, control substance, or negative control substance (described below) was administered to a rat through a catheterized femoral vein. Each dose of each test substance or positive or negative control substance was administered to an experimental or control group of 9 test rats. In this study, GE and VT served as test substances, propranolol served as the positive control substance, and physiological saline served as the negative control substance. Each test rat in an experimental group was given a dose of either 0.1, 1.0, or 10.0 milligram GE per kilogram of body weight of the subject animal (mg/kg) or 0.1, 1.0, or 10.0 milligram VT per kilogram of body weight of the animal. Each animal of the positive control group received an intravenous dose of 0.5 mg of β-adrenergic blocking agent, propranolol (Obzidan, Germed, Germany) per kilogram of body weight. Propranolol is commonly used to manage cardiac arrhythmia and there is some evidence that the agent may reduce the extent of ischemic damage to the heart. […] Each animal of the negative control group received physiological saline.
# One hour after initiation of the coronary artery occlusion, each test animal was sacrificed, its blood was collected, and the CPK activity in its blood serum was measured. CPK activity was determined by using a standard biochemical method, such as that commercially available from the Lachema Company (Czechia) in its test kit, and by following the manufacturer's process instructions included in the package insert.
# As a supplementary control for the possible trauma caused by the surgical procedure, a group of 9 sham-operated rats was included in the study. These test animals were subjected to chest dissection, but not to coronary artery occlusion. These "sham-operated" animals were not treated with any test or control substances and were euthanized 1 hour after surgery. Their blood was then collected for determination of CPK activity.
# [2] = system: mice; assay: Chloroform-induced arrhythmia; format: in vivo
# Procedure: Each mouse in the study was treated by intraperitoneal injection of a dose of a test or control substance 15 minutes prior to the administration of a deep chloroform anesthesia. A test or control substance was then administered to each mouse. […] Novocainamide, a known antiarrhythmic agent, served as the positive control substance and was administered to mice in the positive control group at a dose of 240 mg/kg. Physiological saline served as the negative control substance and was administered to the mice in the negative control group.
# Chloroform anesthesia was administered to each mouse by placing the mouse in an airtight glass container with cotton wool soaked in 20 ml of absolute chloroform. At the moment of respiratory arrest, the mouse was removed from the jar and electrocardiogram (ECG) monitoring (standard lead II) was initiated and continued for 30 seconds. […] An antiarrhythmic activity for a particular dose of a test substance is pharmaceutically acceptable if 30% of the animals in a test group show the latter test results (i.e., namely, no sign of ventricular paroxysmal rhythm disturbances and heart rate below 100 beats per 30 seconds within 30 seconds following the respiratory arrest).
# [3] = 0.001 mg/kg i.p. 15 min before chloroform
# [4] = 0.01 mg/kg i.p. 15 min before chloroform
# [5] = 0.1 mg/kg i.p. 15 min before chloroform
# [6] = 1.0 mg/kg i.p. 15 min before chloroform
# [7] = 10.0 mg/kg i.p. 15 min before chloroform
compound,measurement,setting,value
"NCC(=O)N[C@@H](CCC(=O)O)C(=O)O [GE, L-Glycyl-L-Glutamic acid] (H-Gly-Glu-OH)",CPK Activity in blood serum,[1]; 0.1 mg/kg i.v.,0.062 (±0.013) mcCat/L
same,CPK Activity in blood serum,[1]; 1.0 mg/kg i.v.,0.056 (±0.014) mcCat/L
same,CPK Activity in blood serum,[1]; 10.0 mg/kg i.v.,0.110 (±0.024) mcCat/L
same,extent of induced myocardial ischemic lesions (CPK in serum vs negative control),"[1]; 0.1, 1.0, and 10.0 milligram",diminish the extent of induced myocardial ischemic lesions
same,Antiarrhythmic Effect (no. animals) %,[2]; [3],11.1%
same,Antiarrhythmic Effect (no. animals) abs,[2]; [3],1
same,Result,[2]; [3],No effect
same,Antiarrhythmic Effect (no. animals) %,[2]; [4],44.4%
same,Antiarrhythmic Effect (no. animals) abs,[2]; [4],4
same,Result,[2]; [4],Antiarrhythmic effect
same,Antiarrhythmic Effect (no. animals) %,[2]; [5],44.4%
same,Antiarrhythmic Effect (no. animals) abs,[2]; [5],4
same,Result,[2]; [5],Antiarrhythmic effect
same,Antiarrhythmic Effect (no. animals) %,[2]; [6],55.6%
same,Antiarrhythmic Effect (no. animals) abs,[2]; [6],5
same,Result,[2]; [6],Antiarrhythmic effect
same,prevention of chloroform-induced ventricular arrhythmias,"[2]; 0.01, 0.1, 1.0, or 10.0 mg/kg",prevent the development of ventricular arrhythmias
same,Antiarrhythmic Effect (no. animals) %,[2]; [7],66.7%
same,Antiarrhythmic Effect (no. animals) abs,[2]; [7],6
same,Result,[2]; [7],Antiarrhythmic effect
